# Source: patent US11377442B2, “Small molecule agonists and antagonists of NR2F6 activity” (ZANDER THERAPEUTICS, INC., priority 2016, dated 2022)
# Where two headings read alike, the source gives them in different places.
# Experiments:
# Format in all cases: cell-based
# NR2F6 = target: T1, NR2F6 (Homo sapiens, UniProt P10588); assay: NR2F6 agonist screening, Firefly signal cmpd/DMSO
# T1 construct: expressed in transfected cells; also transient transfection
# T1 sequence (P10588 1-404): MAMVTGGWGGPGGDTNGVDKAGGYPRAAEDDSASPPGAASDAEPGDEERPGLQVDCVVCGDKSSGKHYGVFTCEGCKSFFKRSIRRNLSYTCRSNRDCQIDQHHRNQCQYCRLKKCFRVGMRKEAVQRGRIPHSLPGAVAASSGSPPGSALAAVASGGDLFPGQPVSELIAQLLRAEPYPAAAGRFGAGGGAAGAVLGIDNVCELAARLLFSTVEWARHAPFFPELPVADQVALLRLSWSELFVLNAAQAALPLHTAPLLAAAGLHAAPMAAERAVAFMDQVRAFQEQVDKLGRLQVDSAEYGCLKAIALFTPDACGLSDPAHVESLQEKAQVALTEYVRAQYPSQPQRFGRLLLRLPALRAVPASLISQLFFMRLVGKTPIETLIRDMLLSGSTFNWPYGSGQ
# Renilla = Renilla signal in NR2F6 agonist screening, cmpd/DMSO; conditions: Renilla, F4
# HEK293 pGL4 = assay: Firefly_pGL signal, cmpd/DMSO (pGL4 control cells); conditions: Homo sapiens
# NR2F6 LBD = target: T2, NR2F6 LBD (Homo sapiens, UniProt P10588); assay: NR2F6 LBD transient transfection; conditions: LBD
# T2 construct: expressed in transfected cells
# T2 sequence (P10588 165-393 limits assumed): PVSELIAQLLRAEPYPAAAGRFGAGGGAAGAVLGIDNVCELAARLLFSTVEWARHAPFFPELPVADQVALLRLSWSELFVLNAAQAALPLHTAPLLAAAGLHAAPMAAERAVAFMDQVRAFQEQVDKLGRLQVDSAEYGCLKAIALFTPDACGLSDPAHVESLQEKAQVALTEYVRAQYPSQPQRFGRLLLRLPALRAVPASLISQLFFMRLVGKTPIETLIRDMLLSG
# Experimental: FIGS. 27A and 27B show NR2F6 and LBD transient transfection, respectively, for Compound D28. Higher concentrations were excluded due to lower signal (tox effect). FIGS. 27C and 27D show NR2F6 and LBD transient transfection at different concentrations for different compounds. 9 compounds were tested on LBD transfected cells (40, 10, 2 and 0.5 μM, 4 replicates). FIGS. 27E and 27F show toxicity of Compound D28. 9 compounds were tested for cytotoxicity on LBD transfected cells (40, 10, 2 and 0.5 μM, 4 replicates). […] Cytotoxicity normalized to DMSO is shown in FIG. 27F (0% cytotoxicity corresponds to DMSO signal, 100%—zero signal).
# FIGS. 34A and 34B show NR2F6 LBD transient transfection for Compound E21. 9 compounds were tested on LBD transfected cells (40, 10, 2 and 0.5 μM, 4 replicates). FIGS. 34C and 34D show NR2F6 and LBD transient transfection at different concentrations for different compounds. 9 compounds were tested on LBD transfected cells (40, 10, 2 and 0.5 μM, 4 replicates). […] Cytotoxicity normalized to DMSO is shown in FIG. 34D (0% cytotoxicity corresponds to DMSO signal, 100%—zero signal). All compounds were tested at 5, 10, 25 and 50 uM in duplicates. Dog PBMC (1×10^6 cells/mL) were activated by 10 ng/mL PMA+500 ng/mL ionomycin. Data were normalized to controls with (100%)/without (0%) PMA+ionomycin activation.
# FIGS. 39A and 39B show NR2F6 LBD transient transfection for Compound F1. 9 compounds were tested on LBD transfected cells (40, 10, 2 and 0.5 μM, 4 replicates). FIGS. 39C and 39D show toxicity of NR2F6 LBD transient transfection. 9 compounds were tested for cytotoxicity on LBD transfected cells (40, 10, 2 and 0.5 μM, 4 replicates). Tox effect causes lower signal compared to DMSO. Cytotoxicity normalized to DMSO is shown in FIG. 39D (0% cytotoxicity corresponds to DMSO signal, 100%—zero signal).
# [1] = read-out: Renilla, F4, cmpd/DMSO (mean)
# [2] = 1% FBS, read-out: Renilla, F4, 1% FBS, cmpd/DMSO (mean)
# [3] = 10% FBS, read-out: Renilla, F4, 10% FBS, cmpd/DMSO (mean)
# [4] = HEK293, 0.5 uM, pGL4, read-out: Firefly pGL4, cmpd/DMSO (mean)
# [5] = HEK293, 2 uM, pGL4, read-out: Firefly pGL4, cmpd/DMSO (mean)
# [6] = HEK293, 10 uM, pGL4, read-out: Firefly pGL4, cmpd/DMSO (mean)
# [7] = HEK293, 40 uM, pGL4, read-out: Firefly pGL4, cmpd/DMSO (mean)
# [8] = HEK293, pGL4, 1% FBS, 0.5 uM, read-out: Firefly, pGL4, 1% FBS, cmpd/DMSO (mean)
# [9] = HEK293, pGL4, 1% FBS, 2 uM, read-out: Firefly, pGL4, 1% FBS, cmpd/DMSO (mean)
# [10] = HEK293, pGL4, 1% FBS, 10 uM, read-out: Firefly, pGL4, 1% FBS, cmpd/DMSO (mean)
# [11] = HEK293, pGL4, 1% FBS, 40 uM, read-out: Firefly, pGL4, 1% FBS, cmpd/DMSO (mean)
# [12] = HEK293, pGL4, 10% FBS, 0.5 uM, read-out: Firefly, pGL4, 10% FBS, cmpd/DMSO (mean)
# [13] = HEK293, pGL4, 10% FBS, 2 uM, read-out: Firefly, pGL4, 10% FBS, cmpd/DMSO (mean)
# [14] = HEK293, pGL4, 10% FBS, 10 uM, read-out: Firefly, pGL4, 10% FBS, cmpd/DMSO (mean)
# [15] = HEK293, pGL4, 10% FBS, 40 uM, read-out: Firefly, pGL4, 10% FBS, cmpd/DMSO (mean)
structure (smiles),measurement,setting,value
C[C@@H]1C[C@H](C)CN([C@H]2CS(=O)(=O)C[C@@H]2S(=O)(=O)c2ccccc2)C1 [Compound D112],"Firefly F4, cmpd/DMSO (mean)",NR2F6; 0.5 uM,1.2
same,"Firefly F4, cmpd/DMSO (mean)",NR2F6; 2 uM,1.9
same,"Firefly F4, cmpd/DMSO (mean)",NR2F6; 10 uM,2.8
same,"Firefly F4, cmpd/DMSO (mean)",NR2F6; 40 uM,2.6
same,"F4, Firefly/Renilla for S/B(F4) > 3","NR2F6; 1% FBS, 40 uM",1.6
same,"Firefly, F4/pGL4 for S/B(F4) > 3","NR2F6; 1% FBS, 40 uM",2.7
same,"F4, Firefly/Renilla for S/B(F4) > 3","NR2F6; 10% FBS, 40 uM",2.3
same,"Firefly, F4/pGL4 for S/B(F4) > 3","NR2F6; 10% FBS, 40 uM",3.7
same,"Firefly, F4, 1% FBS, cmpd/DMSO (mean)","NR2F6; 1% FBS, 0.5 uM",1.1
same,"Firefly, F4, 1% FBS, cmpd/DMSO (mean)","NR2F6; 1% FBS, 2 uM",0.9
same,"Firefly, F4, 1% FBS, cmpd/DMSO (mean)","NR2F6; 1% FBS, 10 uM",1.6
same,"Firefly, F4, 1% FBS, cmpd/DMSO (mean)","NR2F6; 1% FBS, 40 uM",3.2
same,"Firefly, F4, 10% FBS, cmpd/DMSO (mean)","NR2F6; 10% FBS, 0.5 uM",1.2
same,"Firefly, F4, 10% FBS, cmpd/DMSO (mean)","NR2F6; 10% FBS, 2 uM",1.2
same,"Firefly, F4, 10% FBS, cmpd/DMSO (mean)","NR2F6; 10% FBS, 10 uM",1.5
same,"Firefly, F4, 10% FBS, cmpd/DMSO (mean)","NR2F6; 10% FBS, 40 uM",5.0
same,fold induction at 0.5 µM,Renilla; [1],1
same,fold induction at 2 µM,Renilla; [1],1.1
same,fold induction at 10 µM,Renilla; [1],1.3
same,fold induction at 40 µM,Renilla; [1],1.6
same,fold induction at 0.5 µM,Renilla; [2],1.1
same,fold induction at 2 µM,Renilla; [2],1.1
same,fold induction at 10 µM,Renilla; [2],1.4
same,fold induction at 40 µM,Renilla; [2],2
same,fold induction at 0.5 µM,Renilla; [3],1
same,fold induction at 2 µM,Renilla; [3],1
same,fold induction at 10 µM,Renilla; [3],1.3
same,fold induction at 40 µM,Renilla; [3],2.1
same,fold induction at 0.5 µM,HEK293 pGL4; [4],1
same,fold induction at 2 µM,HEK293 pGL4; [5],1.2
same,fold induction at 10 µM,HEK293 pGL4; [6],2.2
same,fold induction at 40 µM,HEK293 pGL4; [7],2.2
same,fold induction at 0.5 µM,HEK293 pGL4; [8],1.3
same,fold induction at 2 µM,HEK293 pGL4; [9],1.2
same,fold induction at 10 µM,HEK293 pGL4; [10],1.7
same,fold induction at 40 µM,HEK293 pGL4; [11],1.2
same,fold induction at 0.5 µM,HEK293 pGL4; [12],1.3
same,fold induction at 2 µM,HEK293 pGL4; [13],1
same,fold induction at 10 µM,HEK293 pGL4; [14],1.5
same,fold induction at 40 µM,HEK293 pGL4; [15],1.3
same,"Firefly LBD, cmpd/DMSO (mean)",NR2F6 LBD; 0.5 uM,1.1
same,"Firefly LBD, cmpd/DMSO (mean)",NR2F6 LBD; 2 uM,1.2
same,"Firefly LBD, cmpd/DMSO (mean)",NR2F6 LBD; 10 uM,1.8
same,"Firefly LBD, cmpd/DMSO (mean)",NR2F6 LBD; 40 uM,1.9
CCC(C)N[C@H]1CS(=O)(=O)C[C@@H]1S(=O)(=O)c1ccc(C)cc1 (some centres unmarked) [Compound D113],"Firefly F4, cmpd/DMSO (mean)",NR2F6; 0.5 uM,1.3
same,"Firefly F4, cmpd/DMSO (mean)",NR2F6; 2 uM,1.6
same,"Firefly F4, cmpd/DMSO (mean)",NR2F6; 10 uM,2.8
same,"Firefly F4, cmpd/DMSO (mean)",NR2F6; 40 uM,3.3
same,"F4, Firefly/Renilla for S/B(F4) > 3","NR2F6; 10% FBS, 40 uM",3.2
same,"Firefly, F4/pGL4 for S/B(F4) > 3","NR2F6; 10% FBS, 40 uM",2.3
same,"Firefly, F4, 1% FBS, cmpd/DMSO (mean)","NR2F6; 1% FBS, 0.5 uM",1.4
same,"Firefly, F4, 1% FBS, cmpd/DMSO (mean)","NR2F6; 1% FBS, 2 uM",1.1
same,"Firefly, F4, 1% FBS, cmpd/DMSO (mean)","NR2F6; 1% FBS, 10 uM",2.8
same,"Firefly, F4, 1% FBS, cmpd/DMSO (mean)","NR2F6; 1% FBS, 40 uM",2.5
same,"Firefly, F4, 10% FBS, cmpd/DMSO (mean)","NR2F6; 10% FBS, 0.5 uM",1.7
same,"Firefly, F4, 10% FBS, cmpd/DMSO (mean)","NR2F6; 10% FBS, 2 uM",1.5
same,"Firefly, F4, 10% FBS, cmpd/DMSO (mean)","NR2F6; 10% FBS, 10 uM",2.1
same,"Firefly, F4, 10% FBS, cmpd/DMSO (mean)","NR2F6; 10% FBS, 40 uM",5.8
same,fold induction at 0.5 µM,Renilla; [1],1.1
same,fold induction at 2 µM,Renilla; [1],1
same,fold induction at 10 µM,Renilla; [1],1.3
same,fold induction at 40 µM,Renilla; [1],1.4
same,fold induction at 0.5 µM,Renilla; [2],1.3
same,fold induction at 2 µM,Renilla; [2],1.2
same,fold induction at 10 µM,Renilla; [2],1.6
same,fold induction at 40 µM,Renilla; [2],1.8
same,fold induction at 0.5 µM,Renilla; [3],1
same,fold induction at 2 µM,Renilla; [3],1
same,fold induction at 10 µM,Renilla; [3],1.2
same,fold induction at 40 µM,Renilla; [3],1.8
same,fold induction at 0.5 µM,HEK293 pGL4; [4],1.2
same,fold induction at 2 µM,HEK293 pGL4; [5],1.1
same,fold induction at 10 µM,HEK293 pGL4; [6],2.6
same,fold induction at 40 µM,HEK293 pGL4; [7],2
same,fold induction at 0.5 µM,HEK293 pGL4; [8],1
same,fold induction at 2 µM,HEK293 pGL4; [9],1.2
same,fold induction at 10 µM,HEK293 pGL4; [10],1.8
same,fold induction at 40 µM,HEK293 pGL4; [11],1.6
same,fold induction at 0.5 µM,HEK293 pGL4; [12],1.1
same,fold induction at 2 µM,HEK293 pGL4; [13],1.2
same,fold induction at 10 µM,HEK293 pGL4; [14],1.7
same,fold induction at 40 µM,HEK293 pGL4; [15],2.5
same,"Firefly LBD, cmpd/DMSO (mean)",NR2F6 LBD; 0.5 uM,1.1
same,"Firefly LBD, cmpd/DMSO (mean)",NR2F6 LBD; 2 uM,1.3
same,"Firefly LBD, cmpd/DMSO (mean)",NR2F6 LBD; 10 uM,2.2
same,"Firefly LBD, cmpd/DMSO (mean)",NR2F6 LBD; 40 uM,2.5
